Reference: PubChem BioAssay AID1648 (Sanford-Burnham Center for Chemical Genomics, 2009)
Activity calls are given as the source filed them. No rule for the calls is given here.

Molecular target: Serine/threonine-protein kinase mTOR (Homo sapiens) (UniProt P42345)
Assay: binders of mTOR FRB domain, biophysical, NMR (AID 1648)
Conditions: NMR binding to FRB domain, chemical shift

Sequence of Serine/threonine-protein kinase mTOR (Homo sapiens) (P42345 2015-2114): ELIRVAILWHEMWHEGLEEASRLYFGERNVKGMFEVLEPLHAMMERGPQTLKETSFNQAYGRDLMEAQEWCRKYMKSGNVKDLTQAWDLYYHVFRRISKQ

Cc1nn2c(=O)/c(=C/c3cccc(F)c3)sc2nc1=O
Kd: > 4 mM (inactive)

O=C(O)C1COc2ccccc2C1 (stereo not drawn)
Kd: > 4 mM (inactive)

NC(=O)CSc1ccc(-c2ccco2)nn1
Kd: > 4 mM (inactive)

COc1cc(OC)c2c(c1)O[C@H](c1ccc(OC)c(OC)c1)[C@@H](O)C2
Kd: > 4 mM (inactive)

COc1cccc2c1CCC1=CC(=O)CC[C@@]12C
Kd: > 4 mM (inactive)

N#CCc1nc2ccccc2s1
Kd: > 4 mM (inactive)

NC(=S)CN1CCCC1=O
Kd: > 4 mM (inactive)

Cc1cc(=O)c2c(O)c(C)c(O)cc2o1
Kd: > 4 mM (inactive)

OCC1Cc2ccccc2N1 (stereo not drawn)
Kd: > 4 mM (inactive)

CC(=O)c1c(C)nc(C)nc1NC(=O)C(C)C
Kd: > 4 mM (inactive)

O=S1(=O)CCC2CC=CCC21 (stereo not drawn)
Kd: > 4 mM (inactive)

NC12CC3CC(C1)CC(CC(=O)O)(C3)C2
Kd: > 4 mM (inactive)

O=C(NC1CC1)c1ccccc1[N+](=O)[O-]
Kd: > 4 mM (inactive)

O=C(O)c1cccc2c1OCC2
Kd: > 4 mM (inactive)

COc1c2c(cc3occ(-c4ccc5c(c4)OCO5)c(=O)c13)OC(C)(C)C=C2
Kd: > 4 mM (inactive)

Nc1ccc(OCc2ccccc2)cc1
Kd: > 4 mM (inactive)

CC(=O)Nc1ccccc1-c1ccccc1NC(C)=O
Kd: > 4 mM (inactive)

O=C(O)CS(=O)(=O)c1ccccc1
Kd: > 4 mM (inactive)

Cc1c(CCO)c(=O)n2c([nH]c3ccccc32)c1C#N
Kd: > 4 mM (inactive)

Cc1cc(C)n(/N=C\c2cccs2)c(=O)c1C(N)=O
Kd: > 4 mM (inactive)

CC(=O)N1CC2(C)CN(C(C)=O)CC(C)(C1)C2
Kd: > 4 mM (inactive)

COc1c2c(cc3c1OCO3)CCN(C)C2
Kd: > 4 mM (inactive)

O=C(/C(=N\O)n1cncn1)c1ccccc1Cl
Kd: > 4 mM (inactive)

CC(=O)O[C@H]1C[C@@H](OC(C)=O)C(C)(C)C2CC(=O)[C@]3(C)C(CC[C@@]4(C)[C@H](C(=O)O)OC(=O)C5OC543)[C@]21C (stereo partly drawn)
Kd: > 4 mM (inactive)

Nc1ccc2sccc2c1
Kd: > 4 mM (inactive)

O=C1C2CC=CCC2C(=O)N1c1cccc(O)c1 (stereo not drawn)
Kd: > 4 mM (inactive)

Cc1nn(C)c2sc(C(=O)O)cc12
Kd: > 4 mM (inactive)

NC(CSCSCC(N)C(=O)O)C(=O)O (stereo not drawn)
Kd: > 4 mM (inactive)

C=CCSCC=C
Kd: > 4 mM (inactive)

O=C(O)C1=C[C@@H](O)[C@@H](O)[C@H](O)C1
Kd: > 4 mM (inactive)

Cc1ccc(C(=O)N2CCC(C(N)=O)CC2)c(Cl)c1
Kd: > 4 mM (inactive)

CC(=O)Nc1ccncc1NC(C)=O
Kd: > 4 mM (inactive)

Nc1nc(-c2cccnc2)nn1C(=O)Cc1ccccc1
Kd: > 4 mM (inactive)

O=C1CN(C(=O)c2ccccc2)c2ccccc2N1
Kd: > 4 mM (inactive)

Cn1nnc2cc(C(=O)NC3=NCCS3)ccc21
Kd: > 4 mM (inactive)

NN1C(=O)CSC1=Nc1ccccc1
Kd: > 4 mM (inactive)

O=C1CS/C(=N/S(=O)(=O)c2ccccc2)N1
Kd: > 4 mM (inactive)

CC1(C)CCC(C)(C)c2cc(C(=O)O)ccc21
Kd: > 4 mM (inactive)

Cn1nc(C(=O)Nc2cccnc2)cc1Cl
Kd: > 4 mM (inactive)

O=C1CSC(=Nc2cccc(C(F)(F)F)c2)N1
Kd: > 4 mM (inactive)

C[n+]1cccc(C(=O)[O-])c1
Kd: > 4 mM (inactive)

CC(C)(O)[C@@H]1[C@H]2OC(=O)[C@@H]1[C@]1(O)C[C@H]3O[C@]34C(=O)O[C@H]2[C@]14C
Kd: > 4 mM (inactive)

Cc1ccc(-c2nc(N)n(C(=O)c3cccnc3)n2)cc1
Kd: > 4 mM (inactive)

COC(=O)CSc1ncnc2c(C)csc12
Kd: > 4 mM (inactive)

CCOC(=O)c1c(C)[nH]c2ccc(O)cc12
Kd: > 4 mM (inactive)

Cc1cc(C)n2c(SCc3cccs3)nnc2n1
Kd: > 4 mM (inactive)

Cc1cc(N(CN2CCCC2=O)C(=O)c2ccccc2)no1
Kd: > 4 mM (inactive)

CN1CCCn2c1nc1c2c(=O)[nH]c(=O)n1C
Kd: > 4 mM (inactive)

CCSc1n[nH]c(=O)[nH]c1=O
Kd: > 4 mM (inactive)

C=C[C@H]1CN2CC[C@H]1C[C@@H]2[C@@H](O)c1ccnc2ccc(OC)cc12
Kd: > 4 mM (inactive)

NC(=O)C1CCN(C(=S)c2cccs2)CC1
Kd: > 4 mM (inactive)

O=C(O)c1cccnc1-c1nc2ccccc2s1
Kd: > 4 mM (inactive)

Cc1cc(C(=O)Nc2ccc3c(c2)OCCO3)c(C)o1
Kd: > 4 mM (inactive)

NC(=O)c1cccc(N2C(=O)C=CC2=O)c1
Kd: > 4 mM (inactive)

COC(=O)c1cncn1C
Kd: > 4 mM (inactive)

Cc1noc(C)c1C(=O)Nc1ccccn1
Kd: > 4 mM (inactive)

COC(=O)C(O)c1ccccc1 (stereo not drawn)
Kd: > 4 mM (inactive)

CN1CCC(N2CCOCC2)CC1
Kd: > 4 mM (inactive)

O=C(O)c1cc(=O)[nH]c2ccccc12
Kd: > 4 mM (inactive)

O=C(O)C1CNc2ccccc2O1 (stereo not drawn)
Kd: > 4 mM (inactive)

Cc1nc2ccc(NC(=O)N3CCOCC3)cc2s1
Kd: > 4 mM (inactive)

COc1cc(O)c2c(=O)cc(-c3ccc(OC)c(-c4c(O)cc(O)c5c(=O)cc(-c6ccc(O)cc6)oc45)c3)oc2c1
Kd: > 4 mM (inactive)

COc1c2occc2c(OC)c2c(=O)cc(C)oc12
Kd: > 4 mM (inactive)

Cc1nc2ccccc2c(=O)n1/N=C/c1ccco1
Kd: > 4 mM (inactive)

CSc1nc2[nH]ncc2c(=O)[nH]1
Kd: > 4 mM (inactive)

CC(=O)O[C@H]1CC[C@@]2(C)C(C[C@@H](OC(C)=O)[C@@]3(C)C4=CC(=O)O[C@@H](c5ccoc5)[C@]4(C)CCC23)C1(C)C (stereo partly drawn)
Kd: > 4 mM (inactive)

CCOC(=O)Cn1cnc2sc3c(c2c1=O)CCC3
Kd: > 4 mM (inactive)

Cc1ccc(CN2C3=NC(=O)CN3c3ccccc32)cc1
Kd: > 4 mM (inactive)

CC(=O)Nc1ccc(S(N)(=O)=O)cc1
Kd: > 4 mM (inactive)

Cn1c(O)c(/C=C2\C=CC=N2)c(=O)[nH]c1=S
Kd: > 4 mM (inactive)

Cc1cc(SCC(=O)Nc2nccs2)nc(=O)[nH]1
Kd: > 4 mM (inactive)

Cc1occc1C(=O)NCc1ccccn1
Kd: > 4 mM (inactive)

Cc1nn(C)c2sc(CO)cc12
Kd: > 4 mM (inactive)

O=C1OC(N2CCOCC2)c2ccccc21 (stereo not drawn)
Kd: > 4 mM (inactive)

CC(=O)Nc1cccc(-c2nc3ccccc3c(=O)o2)c1
Kd: > 4 mM (inactive)

O=C1NC(=S)N/C1=C\c1cccnc1
Kd: > 4 mM (inactive)

Cc1cccn2cc(CNc3ccccc3)nc12
Kd: > 4 mM (inactive)

O=C(O)CCCCCCCC(=O)O
Kd: > 4 mM (inactive)

Cc1ccc(/C=C2/NC(=S)NC2=O)s1
Kd: > 4 mM (inactive)

Cc1nnsc1C(=O)Nc1ccccn1
Kd: > 4 mM (inactive)

COc1ccc2c(=O)c(OC)c(-c3ccccc3)oc2c1
Kd: > 4 mM (inactive)

Cc1ccc(CN2CCNC(=O)C2CC(=O)O)o1 (stereo not drawn)
Kd: > 4 mM (inactive)

Cc1n[nH]c(=S)[nH]c1=O
Kd: > 4 mM (inactive)

CS(=O)(=O)c1ccc2nc(N)sc2c1
Kd: > 4 mM (inactive)

O=C(NN=C1CCCC1)c1ccncc1
Kd: > 4 mM (inactive)

O=S1(=O)CCC(NCCO)C1 (stereo not drawn)
Kd: > 4 mM (inactive)

O=C(O)CCc1c[nH]c2ccccc12
Kd: > 4 mM (inactive)

NC(N)=Nc1nc2ccccc2o1
Kd: > 4 mM (inactive)
